This note sets out measurements from patent publication US20240391954A1, “MC4R AGONIST PEPTIDES” (The Regents of the University of Michigan, priority 2021, published 2024).

What all share (assay type): cell-based
One experiment deals with T1, human MC4R (Homo sapiens, UniProt P32245).
T1 construct: host or cells: HEK-293 cells stably expressing the GScAMP22F split-luciferase cAMP sensor and hMC4R, G418 selection
The experiment in a line: split-luciferase cAMP sensor assay, agonist mode (measurement window 1), hMC4R. The conditions noted are these: agonist mode; for Emax / MC4R cAMP % max activation: % maximal activation; for Emax: read-out: MC4R cAMP % max activation; for EC50: HEK-293 cells stably expressing hMC4R, read-out: MC4R cAMP EC50. The gist of the method: (§1)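 Live stable cell lines carrying receptor plus GloSensor cAMP22f split-luciferase, loaded with 4% D-luciferin in serum-free medium (~1% serum estimated during assay). Luminescence recorded during in-line peptide addition; direct agonist effect read in window 1, with 20 μM forskolin as normalization reference. EC50 from four-parameter sigmoid fit.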

The next experiment concerns the target T2, human MC1R (Homo sapiens, UniProt Q01726).
T2 construct: expressed in transfected cells; host or cells: HEK-293 cells stably expressing hMC1R and the GScAMP22F cAMP sensor
The experiment can be described thus: split-luciferase cAMP sensor assay, agonist mode, hMC1R. The conditions noted are these: MC4R versus MC1R. The gist of the method:
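HEK-293 cells stably expressing hMC1R and the GScAMP22F split-luciferase cAMP sensor, preloaded 120 min at 37° C with D-luciferin in serum-free medium. Peptide responses were taken as peak luminescence over 2-13 min minus 2-min baseline, normalized to the α-MSH ECmax. EC50 was obtained from a four-parameter variable-slope fit.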

For a further experiment, the target named is T3, human MC3R (Homo sapiens, UniProt P41968).
T3 construct: expressed in transfected cells; host or cells: HEK-293 cells stably expressing the GScAMP22F split-luciferase cAMP sensor (parent reporter line from Promega); MC3R clone generated in-house, G418 selection
T3 sequence (P41968 whole entry): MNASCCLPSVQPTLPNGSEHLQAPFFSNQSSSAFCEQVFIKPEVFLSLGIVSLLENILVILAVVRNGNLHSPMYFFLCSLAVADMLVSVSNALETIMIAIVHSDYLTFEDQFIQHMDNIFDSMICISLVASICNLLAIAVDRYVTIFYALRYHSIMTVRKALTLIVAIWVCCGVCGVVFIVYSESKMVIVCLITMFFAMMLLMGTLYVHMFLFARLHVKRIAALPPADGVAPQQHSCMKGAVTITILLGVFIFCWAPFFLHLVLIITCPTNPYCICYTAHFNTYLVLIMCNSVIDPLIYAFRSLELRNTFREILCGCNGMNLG
The experiment in a line: split-luciferase cAMP sensor assay, agonist mode (measurement window 1), hMC3R. The conditions noted are these: for Emax / MC3R cAMP % max activation: % maximal activation; for Emax / EC50 / MC3R cAMP % max activation: agonist mode; for Emax: read-out: MC3R cAMP % max activation; for MC4R selectivity vs MC3R: MC4R versus MC3R; for EC50: HEK-293 cells stably expressing hMC3R, read-out: MC3R cAMP EC50. The gist of the method: as §1

Positions of bridges follow the written chain, without caps; N, C: chain ends. Non-standard residues stand in square brackets, D forms with d. Residues, ends and D or L forms follow the SMILES beside them. NMeW = CN[C@@H](Cc1c[nH]c2ccccc12)C(=O)O; 1Nal = N[C@@H](Cc1cccc2ccccc12)C(=O)O; NMeH = CN[C@@H](Cc1c[nH]cn1)C(=O)O; NMeR = CN[C@@H](CCCNC(=N)N)C(=O)O; 4Pal = N[C@@H](Cc1ccncc1)C(=O)O; Cit = NC(=O)NCCC[C@H](N)C(=O)O; NMeA = CN[C@@H](C)C(=O)O; Nle = CCCC[C@H](N)C(=O)O; Aib = CC(C)(N)C(=O)O

T2 sequence (Q01726 whole entry): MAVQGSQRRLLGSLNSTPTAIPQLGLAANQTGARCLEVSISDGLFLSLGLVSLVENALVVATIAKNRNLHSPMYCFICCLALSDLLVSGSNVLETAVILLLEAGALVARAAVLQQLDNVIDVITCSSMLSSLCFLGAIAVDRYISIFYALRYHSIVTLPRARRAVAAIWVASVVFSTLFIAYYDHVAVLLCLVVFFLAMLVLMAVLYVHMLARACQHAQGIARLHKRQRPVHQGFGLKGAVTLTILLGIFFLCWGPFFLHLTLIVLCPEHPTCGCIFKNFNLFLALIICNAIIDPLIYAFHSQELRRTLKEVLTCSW
T1 sequence (P32245 whole entry): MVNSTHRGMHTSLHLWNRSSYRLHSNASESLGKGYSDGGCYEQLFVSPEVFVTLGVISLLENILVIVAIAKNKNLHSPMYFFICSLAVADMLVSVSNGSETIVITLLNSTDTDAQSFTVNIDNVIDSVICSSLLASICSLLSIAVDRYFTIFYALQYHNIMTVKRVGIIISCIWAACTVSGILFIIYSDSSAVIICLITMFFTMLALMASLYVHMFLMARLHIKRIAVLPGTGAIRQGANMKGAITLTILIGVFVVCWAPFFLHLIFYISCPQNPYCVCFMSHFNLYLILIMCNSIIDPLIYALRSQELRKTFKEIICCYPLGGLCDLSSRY

Regarding `CCCC[C@H](NC(=O)[C@H](CCCNC(=N)N)NC(C)=O)C(=O)N[C@H]1CSSC[C@@H](C(N)=O)NC(=O)[C@H](Cc2c[nH]c3ccccc23)NC(=O)[C@H](CCCNC(=N)N)NC(=O)[C@@H](Cc2ccccc2)NC(=O)[C@H](Cc2ccncc2)NC1=O` [CTX-1621, Arg-Nle-cyclo(Cys-Pal(4′)-D-Phe-Arg-Trp-Cys)] (Ac-R[Nle]C[4Pal][dF]RWC-NH2; disulfide 3-8 (inferred)), at human MC4R, the Emax amounted to 92% and the EC50 – broadly, the concentration that produces a half-maximal response – is 2.9 nM. Moreover, the “MC4R selectivity vs MC1R” value on human MC1R is 82. Moreover, on human MC3R, the Emax worked out at 15% and the “MC4R selectivity vs MC3R” value amounted to 13.
For `CC(=O)N[C@@H](CCCNC(=N)N)C(=O)N[C@H]1CSSC[C@@H](C(N)=O)NC(=O)[C@@H](Cc2c[nH]c3ccccc23)NC(=O)[C@H](CCCNC(=N)N)NC(=O)[C@@H](Cc2ccccc2)NC(=O)[C@H](CCCNC(=N)N)NC(=O)[C@H](C)N(C)C1=O` [CTX-1269, Arg-cyclo(Cys-NMe-Ala-Arg-D-Phe-Arg-D-Trp-Cys)] (Ac-RC[NMeA]R[dF]R[dW]C-NH2; disulfide 2-8 (inferred)) the same measures were 92%, 13 nM, 2.56, 39% and 9.31.
On to `CC(=O)N[C@@H](CCCNC(=N)N)C(=O)N[C@H]1CSSC[C@@H](C(N)=O)NC(=O)[C@@H](Cc2c[nH]c3ccccc23)NC(=O)[C@H](CCCNC(=N)N)N(C)C(=O)[C@@H](Cc2ccccc2)NC(=O)[C@H](CCCNC(=N)N)NC(=O)[C@@H](C)NC1=O` [CTX-1284, Arg-cyclo(Cys-D-Ala-Arg-D-Phe-N-Me-Arg-D-Trp-Cys)] (Ac-RC[dA]R[dF][NMeR][dW]C-NH2; disulfide 2-8), for which the Emax at human MC4R came out at 91%. The “MC4R selectivity vs MC1R” value on human MC1R is recorded as 0.15. Also, on human MC3R, the Emax is 45%, the EC50 was 1040 nM and the “MC4R selectivity vs MC3R” value came to 8.11.
As to `CC(=O)N[C@@H](CCCNC(=N)N)C(=O)N[C@H]1CSSC[C@@H](C(N)=O)NC(=O)[C@H](Cc2c[nH]c3ccccc23)NC(=O)[C@H](CCCNC(=N)N)NC(=O)[C@@H](Cc2ccccc2)NC(=O)[C@H](CCCNC(N)=O)NC(=O)[C@H](C)NC1=O` [CTX-1287, Arg-cyclo(Cys-Ala-Cit-D-Phe-Arg-Trp-Cys)] (Ac-RCA[Cit][dF]RWC-NH2; disulfide 2-8 (inferred)), the Emax at human MC4R is 94%. Moreover, the “MC4R selectivity vs MC1R” value at human MC1R stood at 281. At human MC3R, the Emax came out at 43% and the “MC4R selectivity vs MC3R” value is reported as 66.
For `CC(=O)N[C@@H](CCCNC(=N)N)C(=O)N[C@H]1CSSC[C@@H](C(N)=O)NC(=O)[C@H](Cc2ccccc2)NC(=O)[C@H](CCCNC(=N)N)NC(=O)[C@@H](Cc2ccccc2)NC(=O)[C@H](CCCNC(=N)N)NC(=O)C(C)(C)NC1=O` [CTX-1601, Arg-cyclo(Cys-Aib-Arg-D-Phe-Arg-Phe-Cys)] (Ac-RC[Aib]R[dF]RFC-NH2; disulfide 2-8) the same measures were 97%, 0.93, 73% and 2.3.
For `CC(=O)N[C@H]1CSSC[C@@H](C(N)=O)NC(=O)[C@H](Cc2c[nH]c3ccccc23)NC(=O)[C@H](CCCNC(=N)N)NC(=O)[C@@H](Cc2ccccc2)NC(=O)[C@H](CCCNC(=N)N)NC(=O)C(C)(C)NC1=O` [CTX-1632, cyclo(Cys-Aib-Arg-D-Phe-Arg-Trp-Cys)] (Ac-C[Aib]R[dF]RWC-NH2; disulfide 1-7) the same measures were 105%, 3.18, 77% and 36.
As for `CCCC[C@H](NC(=O)[C@H](CCCNC(=N)N)NC(C)=O)C(=O)N[C@H]1CSSC[C@@H](C(N)=O)NC(=O)[C@H](Cc2c[nH]c3ccccc23)NC(=O)[C@H](CCCNC(=N)N)NC(=O)[C@H](Cc2cccc3ccccc23)NC(=O)[C@H](Cc2c[nH]cn2)NC1=O` [CTX-1610, Arg-Nle-cyclo(Cys-His-Nal(1′)-Arg-Trp-Cys)] (Ac-R[Nle]CH[1Nal]RWC-NH2; disulfide 3-8), the Emax amounted to 90% at human MC4R and 67% at human MC3R. Moreover, at human MC1R, the “MC4R selectivity vs MC1R” value amounted to 0.03. Also, the “MC4R selectivity vs MC3R” value at human MC3R is recorded as 0.66.
On to `CC(=O)N[C@@H](CCCNC(=N)N)C(=O)N[C@H]1CSSC[C@@H](C(N)=O)NC(=O)[C@@H](Cc2ccccc2)NC(=O)[C@H](CCCNC(=N)N)NC(=O)[C@@H](Cc2ccccc2)NC(=O)[C@H](CCCNC(=N)N)NC(=O)[C@@H](C)NC1=O` [CTX-1257, Arg-cyclo(Cys-D-Ala-Arg-D-Phe-Arg-D-Phe-Cys)] (Ac-RC[dA]R[dF]R[dF]C-NH2; disulfide 2-8 (inferred)), for which, at human MC4R, the “MC4R cAMP % max activation” value was “(94%)” and the EC50 is 692 nM. Moreover, the “MC4R selectivity vs MC1R” value at human MC1R amounted to 0.02. In addition, on human MC3R, the “MC3R cAMP % max activation” value was “(88%)” and the “MC4R selectivity vs MC3R” value is 0.06.
With `C[C@H]1NC(=O)CSC[C@@H](C(N)=O)NC(=O)[C@H](Cc2c[nH]c3ccccc23)NC(=O)[C@H](CCCNC(=N)N)NC(=O)[C@@H](Cc2ccccc2)NC(=O)[C@H](Cc2c[nH]cn2)NC1=O` [CTX-1202, Thioether-cyclo((D-Ala-His-D-Phe-Arg-Trp-Cys)], on human MC4R, the Emax is 104%. For the same molecule, the “MC4R selectivity vs MC1R” value on human MC1R came to 0.89. Further, at human MC3R, the Emax stood at 101% and the “MC4R selectivity vs MC3R” value is recorded as 76.
With `N=C(N)NCCC[C@@H]1NC(=O)[C@@H](Cc2ccccc2)NC(=O)[C@H](Cc2c[nH]cn2)NC(=O)CNC(=O)CSC[C@@H](C(N)=O)NC(=O)[C@H](Cc2ccccc2)NC1=O` [CTX-1653, Thioether-cyclo(Gly-His-D-Phe-Arg-Phe-Cys)] ({CH2CO}-GH[dF]RFC-NH2; thioether N-6), on human MC4R, the Emax came to 83% and the EC50 was found to be 1230 nM. Moreover, the “MC4R selectivity vs MC1R” value on human MC1R is recorded as 0.83. Moreover, at human MC3R, the EC50 was greater than 10000 nM and the “MC4R selectivity vs MC3R” value is reported as greater than 8.
For `CC1(C)NC(=O)CSC[C@@H](C(N)=O)NC(=O)[C@H](Cc2c[nH]c3ccccc23)NC(=O)[C@H](CCCNC(=N)N)NC(=O)[C@@H](Cc2ccccc2)NC(=O)[C@H](Cc2c[nH]cn2)NC1=O` [CTX-1647, Thioether-cyclo(Aib-His-D-Phe-Arg-Trp-Cys)], the Emax on human MC4R came to 109%. Besides, on human MC1R, the “MC4R selectivity vs MC1R” value amounted to 3.66. In addition, on human MC3R, the Emax came to 102% and the “MC4R selectivity vs MC3R” value is listed as 30.
For `CC1(C)NC(=O)CSC[C@@H](C(N)=O)NC(=O)[C@H](Cc2c[nH]c3ccccc23)NC(=O)[C@H](CCCNC(=N)N)NC(=O)[C@@H](Cc2ccccc2)NC(=O)[C@H](CCCNC(N)=O)NC1=O` [CTX-1649, Thioether-cyclo(Aib-Cit-D-Phe-Arg-Trp-Cys)] ({CH2CO}-[Aib][Cit][dF]RWC-NH2; thioether N-6) the same measures were 97%, 1652, 79% and 72.
As for `CC(=O)N[C@@H](CCCNC(=N)N)C(=O)N[C@H]1CSSC[C@@H](C(N)=O)NC(=O)[C@H](Cc2c[nH]c3ccccc23)NC(=O)[C@H](CCCNC(=N)N)NC(=O)[C@@H](Cc2ccccc2)NC(=O)[C@H](CCCNC(N)=O)NC(=O)C(C)(C)NC1=O` [CTX-1289, Arg-cyclo(Cys-Aib-Cit-D-Phe-Arg-Trp-Cys)], at human MC4R, the Emax came to 93%. In addition, at human MC1R, the “MC4R selectivity vs MC1R” value was found to be 130. Besides, at human MC3R, the Emax amounted to 21% and the “MC4R selectivity vs MC3R” value turned out to be 30.
On the same counts, the results for `CC(=O)N[C@H]1CSSC[C@@H](C(N)=O)NC(=O)[C@H](Cc2ccccc2)NC(=O)[C@H](CCCNC(=N)N)NC(=O)[C@@H](Cc2ccccc2)NC(=O)[C@H](Cc2c[nH]cn2)NC(=O)C(C)(C)NC1=O` [CTX-1634, cyclo(Cys-Aib-His-D-Phe-Arg-Phe-Cys)] (Ac-C[Aib]H[dF]RFC-NH2; disulfide 1-7 (inferred)) are 107%, 4.02, 94% and 6.68.
With `CC(=O)N[C@@H](CCCNC(=N)N)C(=O)N[C@H]1CSSC[C@@H](C(N)=O)NC(=O)[C@@H](Cc2ccccc2)NC(=O)[C@H](CCCNC(=N)N)NC(=O)[C@@H](Cc2ccccc2)NC(=O)[C@H](CCCNC(=N)N)NC(=O)[C@@H](C)NC1=O` [CTX-1265, Arg-cyclo(Cys-D-Ala-Arg-D-Phe-Arg-D-Phe-Cys)] (Ac-RC[dA]R[dF]R[dF]C-NH2; disulfide 2-8 (inferred)), at human MC4R, the “MC4R cAMP % max activation” value was “(71%)”. For the same molecule, at human MC1R, the “MC4R selectivity vs MC1R” value was found to be 0.02. Besides, at human MC3R, the “MC3R cAMP % max activation” value is recorded as “(60%)” and the “MC4R selectivity vs MC3R” value was determined as 0.04.
For the molecule `C[C@H]1NC(=O)CSC[C@@H](C(N)=O)NC(=O)[C@H](Cc2c[nH]c3ccccc23)N(C)C(=O)[C@H](CCCNC(=N)N)NC(=O)[C@@H](Cc2ccccc2)NC(=O)[C@H](Cc2c[nH]cn2)N(C)C1=O` [CTX-1203, Thioether-cyclo(D-Ala-Nme-His-D-Phe-Arg-Nme-Trp-Cys)] ({CH2CO}-[dA][NMeH][dF]R[NMeW]C-NH2; thioether N-6), at human MC4R, the Emax is 109% and the EC50 was 16 nM. For the same molecule, the “MC4R selectivity vs MC1R” value on human MC1R is 2.32. In addition, at human MC3R, the Emax stood at 107% and the “MC4R selectivity vs MC3R” value came out at 161.
